Reference: patent US20250270201A1, “SUBSTITUTED PYRIMIDINYL HYDRAZIDE COMPOUND AND PREPARATION METHOD AND USE THEREOF” (ARIGENX THERAPEUTICS CO., LTD., priority 2022, published 2025)
pIC50: −log10 of the molar value.

Biological target: T1, AHR (Homo sapiens, UniProt P35869)
T1 construct: A human liver cancer cell line HepG2 endogenously expressing an AHR protein; host or cells: HepG2 stably transfected with a CYP1A1-promoter firefly luciferase reporter
T1 sequence (P35869 11-848): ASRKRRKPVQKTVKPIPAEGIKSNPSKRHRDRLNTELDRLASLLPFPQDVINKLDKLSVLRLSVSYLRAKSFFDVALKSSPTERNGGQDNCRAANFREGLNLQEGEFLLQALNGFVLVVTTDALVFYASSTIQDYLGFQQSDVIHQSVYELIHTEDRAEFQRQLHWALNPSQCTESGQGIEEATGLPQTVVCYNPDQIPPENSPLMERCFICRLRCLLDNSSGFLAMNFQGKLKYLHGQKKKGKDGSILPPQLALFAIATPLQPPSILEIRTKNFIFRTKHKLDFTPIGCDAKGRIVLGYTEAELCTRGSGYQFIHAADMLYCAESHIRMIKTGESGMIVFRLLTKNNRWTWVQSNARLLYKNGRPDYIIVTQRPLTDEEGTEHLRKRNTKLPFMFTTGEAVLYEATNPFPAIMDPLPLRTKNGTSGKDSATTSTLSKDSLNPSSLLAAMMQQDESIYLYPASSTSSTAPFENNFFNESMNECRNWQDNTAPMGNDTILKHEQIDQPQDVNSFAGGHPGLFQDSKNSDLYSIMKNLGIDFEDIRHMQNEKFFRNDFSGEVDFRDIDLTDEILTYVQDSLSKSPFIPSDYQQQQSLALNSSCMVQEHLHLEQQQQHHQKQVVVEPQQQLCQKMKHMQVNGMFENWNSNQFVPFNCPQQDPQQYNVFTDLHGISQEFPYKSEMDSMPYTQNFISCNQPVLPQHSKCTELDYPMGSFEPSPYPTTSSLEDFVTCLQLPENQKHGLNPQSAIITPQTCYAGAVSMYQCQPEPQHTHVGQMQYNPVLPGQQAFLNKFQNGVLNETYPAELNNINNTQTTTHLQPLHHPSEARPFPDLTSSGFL
Assay: Antagonistic effect for AHR in HepG2 cells stably transfected with CYP1A1-promoter firefly luciferase reporter
Format: cell-based
Conditions: AHR agonist-stimulated, 24 h compound treatment, average of two replicates
Source text: A human liver cancer cell line HepG2 endogenously expressing an AHR protein (provided by the Stem Cell Bank of the Chinese Academy of Sciences) was adopted for testing. The expression of a CYP1A1 gene is regulated by an activity of AHR. After being activated, AHR can bind to a sequence called XRE on a CYP1A1 enhancer and initiate the expression of the CYP1A1 gene. To quantitatively determine an impact of a compound on the activity of AHR, a 1,200 bp (−1,143 to +57) regulatory sequence upstream of a promoter of the CYP1A1 gene was synthesized through gene synthesis and then inserted into a plasmid vector carrying firefly luciferase. The plasmid was then linearized through single enzyme cleavage and then transfected into HepG2 cells through lipofectin transfection (Lipofectamine 3000), and transfected HepG2 cells were screened by puromycin to obtain a stably-expressed cell line. When an antagonistic effect of a compound for AHR was tested, the expression of firefly luciferase was initiated by an AHR agonist (such as L-kynurenine, kynurenic acid, indirubin, TCDD, and 2-(1H-indol-3-ylcarbonyl)-4-thiazolecarboxylic acid methyl ester (ITE)), and cells were treated with the compound at different concentrations. Then, the inhibition on the expression of luciferase by the compound was measured.
Stably-transfected HepG2 cells were sub-cultivated in Minimum Eagle's medium (MEM) at 37° C. and 5% carbon dioxide. In the MEM, 1 mM sodium pyruvate, 2 mM GlutaMax, 1×non- essential amino acids, 10% Australian fetal bovine serum, 100 U/mL penicillin-streptomycin, and 5 μg/mL puromycin were supplemented. Before testing, HepG2 cells were inoculated into a 96-well plate at a density of 5-8×10^4 cells/well and cultivated for 24 h to 48 h to allow a cell confluency of about 90% before a drug treatment (puromycin was not added in a medium). Before the drug treatment, AHR agonist-containing 2×compound solutions at different concentrations were prepared with a same medium, and then a half of a cell culture medium in the 96-well plate was replaced with a 2×compound solution. An AHR agonist solution including only DMSO at a corresponding concentration was set as a negative control group, and CH223191 at a corresponding concentration (commercially available) was set as a positive control group. 2 separate replicate tests were set for each compound (including a positive control and a negative control). 24 h after the compound treatment, HepG2 cells were lysed by a Steady-Glo luciferase detection system of Promega, and a luciferase signal was measured by an InfiniteM1000 Pro microplate reader of Tecan.
In terms of data processing, for each replicate test of each compound, inhibition percentages of a compound at different concentrations on an activity of AHR were calculated sequentially with a signal of a well at a compound concentration of 0 as 100% and a cell signal of an untreated agonist as 0. Corresponding IC50 of a compound was calculated with an average value of data of two replicates according to the formula
tirougn non-nnear ning, where y represents an inhibition percentage and x represents a concentration of a corresponding compound.
IC50 for each compound was shown in Table 2, where A indicates IC50≤500 nM, B indicates 500 nM<IC50≤1.0 μM, C indicates 1 μM<IC50≤5.0 μM, and D indicates IC50>5.0 μM.

Row | SMILES | pIC50
1 | O=C(NN1CCOCC1)c1cc(-c2ccc(C(F)(F)F)cc2)nc(-c2cccnc2)n1 [Compound 24] | 6.00 to 6.30
2 | CC(C)N(NC(=O)c1cc(-c2ccc(O)cc2)nc(-c2cccnc2)n1)C(C)CO (centres unmarked) [Compound 51] | 6.00 to 6.30
3 | CCN(NC(=O)c1cc(-c2ccc(C(F)(F)F)cc2)nc(-c2cccc(C)c2)n1)C(C)CO (centres unmarked) [Compound 53] | 6.00 to 6.30
4 | CC(C)N(NC(=O)c1cc(-c2ccc(C(F)(F)F)nc2)nc(-c2cccnc2)n1)C(C)CO (centres unmarked) [Compound 60] | 6.00 to 6.30
5 | CC(C)N(NC(=O)c1cc(-c2ccc(N)cc2)nc(-c2cccnc2)n1)C(C)CO (centres unmarked) [Compound 63] | 6.00 to 6.30
6 | Cc1ccc(-c2cc(C(=O)NN(C(C)C)C(C)CO)nc(-c3cccnc3)n2)s1 (centres unmarked) [Compound 62] | 6.00 to 6.30
7 | CCN(NC(=O)c1cc(-c2ccc(Cl)cc2)nc(-c2cccc(C)c2)n1)C(C)CO (centres unmarked) [Compound 55] | 6.00 to 6.30
8 | Cc1ccc(-c2cc(C(=O)NN(C(C)C)C(C)CO)nc(-c3cccnc3)n2)cc1 (centres unmarked) [Compound 49] | ≥ 6.30
9 | Cn1cc(-c2nc(C(=O)NN3CCOC[C@H]3CO)cc(-c3ccc(C(F)(F)F)cc3)n2)cn1 [Compound 45] | ≥ 6.30

Other lines, results leading:

Row | pIC50 | SMILES
10 | ≥ 6.30 | CC1(C)COCC(=O)N1NC(=O)c1cc(-c2ccc(C(F)(F)F)cc2)nc(-c2cccnc2)n1 [Compound 30]
11 | ≥ 6.30 | CC(O)CN(NC(=O)c1cc(-c2ccc(Cl)cc2)nc(-c2cccnc2)n1)C(C)C (centres unmarked) [Compound 32]
12 | ≥ 6.30 | CCN(NC(=O)c1cc(-c2ccc(C(F)(F)F)cc2)nc(-c2cnsc2)n1)C(C)CO (centres unmarked) [Compound 57]
13 | ≥ 6.30 | C[C@H]1COCCN1NC(=O)c1cc(-c2ccc(C(F)(F)F)cc2)nc(-c2cccnc2)n1 [Compound 4]
14 | ≥ 6.30 | C[C@@H]1COCCN1NC(=O)c1cc(-c2ccc(Cl)cc2)nc(-c2cccnc2)n1 [Compound 9]
15 | ≥ 6.30 | CC(C)N(NC(=O)c1cc(-c2ccc(C(F)(F)F)cc2)nc(-c2cccc(F)c2)n1)C(C)CO (centres unmarked) [Compound 61]
16 | ≥ 6.30 | CN(CCO)NC(=O)c1cc(-c2ccc(C(F)(F)F)cc2)nc(-c2cnn(C)c2)n1 [Compound 18]
17 | ≥ 6.30 | CC(C)N(NC(=O)c1cc(-c2ccc(OC(F)(F)F)cc2)nc(-c2cccnc2)n1)C(C)CO (centres unmarked) [Compound 14]
